Values quoted from earlier work in US20030170327A1, “Vitamin and zinc monomethionine compositions” (priority 2002, published 2003).

Conditions: versus other forms of zinc found in nutritional supplements

CSCC[C@H](N)C(=O)O.[Zn] [zinc monomethionine]
absorption in comparison to other forms of zinc: better absorbed | retention in comparison to other forms of zinc: retained longer
